Activity calls are given as the source filed them. No cut-off for these calls is given here. Starred links: 1 amine or outer side, 2 acyl side, 3 side chain; linkers in the order of their positions; H or OH if unused. Positions of bridges follow the written chain, without caps; N, C: chain ends. Non-standard residues stand in square brackets, D forms with d. Residues, ends and D or L forms follow the SMILES beside them. Dap = NC[C@H](N)C(=O)O; CH2 = C([*:1])[*:2]
Columns and labels:
[1] = target: T1, Neuronal acetylcholine receptor; alpha9/alpha10 (Homo sapiens) (UniProt Q9UGM1+Q9GZZ6); test: Antagonist activity at human alpha9alpha10 nAChR expressed in acetylcholine-induced Xenopus laevis oocytes assessed as inhibition of acetylcholine-induced current at 10 nM at -80 mV holding potential incubated for 5 mins by two electrode voltage-clamp assay; format: cell-based; details: Oocyte, filed as antagonist
[2] = target: T1, Neuronal acetylcholine receptor; alpha9/alpha10 (Homo sapiens); test: Antagonist activity at human alpha9alpha10 nAChR expressed in acetylcholine-induced Xenopus laevis oocytes assessed as inhibition of acetylcholine-induced current at 10 nM at -80 mV holding potential incubated for 5 mins by two electrode voltage-clamp assay relative to control; format: cell-based; details: Oocyte
[3] = Stability in human serum assessed as parent compound remaining incubated at 24 hrs by RP-HPLC analysis; format: ADME, cell-free; details: human serum, read-out: Stability

Structure (SMILES)	Activity [1]	inhibition [2] [%]	remaining at 24 h [3] [%]	inhibition ([2]; filed as antagonist) [%]
CC.CC[C@H](C)[C@@H]1NC(=O)[C@H](CC(=O)O)NC(=O)[C@@H]2CCCN2C(=O)[C@H](CC(N)=O)NC(=O)[C@H](CC(N)=O)NC(=O)[C@H](C(C)C)NC(=O)[C@H](CO)NC(=O)[C@@H]2CSSC[C@H](NC(=O)CN)C(=O)N[C@@H](CSCSC[C@@H](C(N)=O)NC1=O)C(=O)N[C@@H](CN)C(=O)N[C@@H](Cc1cnc[nH]1)C(=O)N1CCC[C@H]1C(=O)N[C@@H](C)C(=O)N2 (HELM PEPTIDE1{G.C.C.[NC[C@H](N[*:1])C(=O)[*:2]].H.P.A.C.S.V.N.N.P.D.I.C.[am]}|CHEM1{[C([*:1])[*:2]]}$PEPTIDE1,PEPTIDE1,2:R3-8:R3|PEPTIDE1,CHEM1,3:R3-1:R1|PEPTIDE1,CHEM1,16:R3-1:R2$$$V2.0)	Active	–	–	–
CC[C@H](C)[C@@H]1NC(=O)[C@H](CC(=O)O)NC(=O)[C@@H]2CCCN2C(=O)[C@H](CC(N)=O)NC(=O)[C@H](CC(N)=O)NC(=O)[C@H](C(C)C)NC(=O)[C@H](CO)NC(=O)[C@@H]2CSSC[C@@H]3NC(=O)CNC(=O)[C@H](CCC(=O)O)NC(=O)CNC(=O)[C@H](CCC(=O)O)NC(=O)CNC(=O)[C@H](CCC(=O)O)NC(=O)CNC(=O)[C@H](CSSC[C@H](NC3=O)C(=O)N[C@@H](CN)C(=O)N[C@@H](Cc3cnc[nH]3)C(=O)N3CCC[C@H]3C(=O)N[C@@H](C)C(=O)N2)NC1=O (HELM PEPTIDE1{A.C.S.V.N.N.P.D.I.C.G.E.G.E.G.E.G.C.C.[NC[C@H](N[*:1])C(=O)[*:2]].H.P}$PEPTIDE1,PEPTIDE1,2:R3-18:R3|PEPTIDE1,PEPTIDE1,10:R3-19:R3|PEPTIDE1,PEPTIDE1,1:R1-22:R2$$$V2.0)	–	20	57.3	–
CC[C@H](C)[C@@H]1NC(=O)[C@H](CC(=O)O)NC(=O)[C@@H]2CCCN2C(=O)[C@H](CC(N)=O)NC(=O)[C@H](CC(N)=O)NC(=O)[C@H](C(C)C)NC(=O)[C@H](CO)NC(=O)[C@@H]2CSSC[C@@H]3NC(=O)CNC(=O)[C@@H](N)CNC(=O)C[C@@H](C(N)=O)NC(=O)[C@H](CSSC[C@H](NC3=O)C(=O)N[C@@H](CN)C(=O)N[C@@H](Cc3cnc[nH]3)C(=O)N3CCC[C@H]3C(=O)N[C@@H](C)C(=O)N2)NC1=O (HELM PEPTIDE1{[N[C@@H](CN[*:3])C(=O)[*:2]].G.C.C.[NC[C@H](N[*:1])C(=O)[*:2]].H.P.A.C.S.V.N.N.P.D.I.C.D.[am]}$PEPTIDE1,PEPTIDE1,1:R3-18:R3|PEPTIDE1,PEPTIDE1,3:R3-9:R3|PEPTIDE1,PEPTIDE1,4:R3-17:R3$$$V2.0)	–	< 5	57.3	–
CC[C@H](C)[C@@H]1NC(=O)[C@H](CC(=O)O)NC(=O)[C@@H]2CCCN2C(=O)[C@H](CC(N)=O)NC(=O)[C@H](CC(N)=O)NC(=O)[C@H](C(C)C)NC(=O)[C@H](CO)NC(=O)[C@@H]2CSCSC[C@H](NC(=O)CN)C(=O)N[C@@H](CSSC[C@@H](C(N)=O)NC1=O)C(=O)N[C@@H](CN)C(=O)N[C@@H](Cc1cnc[nH]1)C(=O)N1CCC[C@H]1C(=O)N[C@@H](C)C(=O)N2 (HELM PEPTIDE1{G.C.C.[NC[C@H](N[*:1])C(=O)[*:2]].H.P.A.C.S.V.N.N.P.D.I.C.[am]}|CHEM1{[C([*:1])[*:2]]}$PEPTIDE1,CHEM1,2:R3-1:R1|PEPTIDE1,CHEM1,8:R3-1:R2|PEPTIDE1,PEPTIDE1,3:R3-16:R3$$$V2.0)	Active	–	–	–
CC[C@H](C)[C@@H]1NC(=O)[C@H](CC(=O)O)NC(=O)[C@@H]2CCCN2C(=O)[C@H](CC(N)=O)NC(=O)[C@H](CC(N)=O)NC(=O)[C@H](C(C)C)NC(=O)[C@H](CO)NC(=O)[C@@H]2CSSC[C@@H]3NC(=O)CNC(=O)[C@H](CN)NC(=O)CNC(=O)[C@H](CN)NC(=O)CNC(=O)[C@H](CN)NC(=O)CNC(=O)[C@H](CSSC[C@H](NC3=O)C(=O)N[C@@H](CN)C(=O)N[C@@H](Cc3cnc[nH]3)C(=O)N3CCC[C@H]3C(=O)N[C@@H](C)C(=O)N2)NC1=O (cyclo(ACSVNNPDICG[Dap]G[Dap]G[Dap]GCC[Dap]HP); disulfide 2-18, 10-19)	Active	–	85.2	–
CC[C@H](C)[C@@H]1NC(=O)[C@H](CC(=O)O)NC(=O)[C@@H]2CCCN2C(=O)[C@H](CC(N)=O)NC(=O)[C@H](CC(N)=O)NC(=O)[C@H](C(C)C)NC(=O)[C@H](CO)NC(=O)[C@@H]2CSSC[C@@H]3NC(=O)CNC(=O)CNC(=O)[C@H](C)NC(=O)[C@H](C)NC(=O)CNC(=O)[C@H](CSSC[C@H](NC3=O)C(=O)N[C@@H](CN)C(=O)N[C@@H](Cc3cnc[nH]3)C(=O)N3CCC[C@H]3C(=O)N[C@@H](C)C(=O)N2)NC1=O (HELM PEPTIDE1{A.A.G.G.C.C.[NC[C@H](N[*:1])C(=O)[*:2]].H.P.A.C.S.V.N.N.P.D.I.C.G}$PEPTIDE1,PEPTIDE1,5:R3-11:R3|PEPTIDE1,PEPTIDE1,6:R3-19:R3|PEPTIDE1,PEPTIDE1,1:R1-20:R2$$$V2.0)	–	< 10	< 40	–
CC[C@H](C)[C@@H]1NC(=O)[C@H](CC(=O)O)NC(=O)[C@@H]2CCCN2C(=O)[C@H](CC(N)=O)NC(=O)[C@H](CC(N)=O)NC(=O)[C@H](C(C)C)NC(=O)[C@H](CO)NC(=O)[C@@H]2CSCSC[C@H](NC(=O)CN)C(=O)N[C@@H](CSCSC[C@@H](C(N)=O)NC1=O)C(=O)N[C@@H](CN)C(=O)N[C@@H](Cc1cnc[nH]1)C(=O)N1CCC[C@H]1C(=O)N[C@@H](C)C(=O)N2 (H-GCC[Dap]HPACSVNNPDIC-NH2; linker 2-8, 3-16 via CH2)	Active	–	–	–
CC[C@H](C)[C@@H]1NC(=O)[C@H](CC(=O)O)NC(=O)[C@@H]2CCCN2C(=O)[C@H](CC(N)=O)NC(=O)[C@H](CC(N)=O)NC(=O)[C@H](C(C)C)NC(=O)[C@H](CO)NC(=O)[C@@H]2CSSC[C@@H]3NC(=O)CNC(=O)CNC(=O)[C@H](C)NC(=O)[C@H](C)NC(=O)CNC(=O)CNC(=O)[C@H](CSSC[C@H](NC3=O)C(=O)N[C@@H](CN)C(=O)N[C@@H](Cc3cnc[nH]3)C(=O)N3CCC[C@H]3C(=O)N[C@@H](C)C(=O)N2)NC1=O (HELM PEPTIDE1{A.A.G.G.C.C.[NC[C@H](N[*:1])C(=O)[*:2]].H.P.A.C.S.V.N.N.P.D.I.C.G.G}$PEPTIDE1,PEPTIDE1,5:R3-11:R3|PEPTIDE1,PEPTIDE1,6:R3-19:R3|PEPTIDE1,PEPTIDE1,1:R1-21:R2$$$V2.0)	–	20	< 40	–
CC[C@H](C)[C@@H]1NC(=O)[C@H](CC(=O)O)NC(=O)[C@@H]2CCCN2C(=O)[C@H](CC(N)=O)NC(=O)[C@H](CC(N)=O)NC(=O)[C@H](C(C)C)NC(=O)[C@H](CO)NC(=O)[C@@H]2CSSC[C@@H]3NC(=O)CNC(=O)[C@@H](N)CCCCNC(=O)CC[C@@H](C(N)=O)NC(=O)[C@H](CSSC[C@H](NC3=O)C(=O)N[C@@H](CN)C(=O)N[C@@H](Cc3cnc[nH]3)C(=O)N3CCC[C@H]3C(=O)N[C@@H](C)C(=O)N2)NC1=O (HELM PEPTIDE1{K.G.C.C.[NC[C@H](N[*:1])C(=O)[*:2]].H.P.A.C.S.V.N.N.P.D.I.C.E.[am]}$PEPTIDE1,PEPTIDE1,1:R3-18:R3|PEPTIDE1,PEPTIDE1,3:R3-9:R3|PEPTIDE1,PEPTIDE1,4:R3-17:R3$$$V2.0)	–	< 40	57.3	–
CC[C@H](C)[C@@H]1NC(=O)[C@H](CC(=O)O)NC(=O)[C@@H]2CCCN2C(=O)[C@H](CC(N)=O)NC(=O)[C@H](CC(N)=O)NC(=O)[C@H](C(C)C)NC(=O)[C@H](CO)NC(=O)[C@@H]2CSSC[C@@H]3NC(=O)CNC(=O)CNC(=O)CNC(=O)[C@H](C)NC(=O)[C@H](C)NC(=O)CNC(=O)CNC(=O)[C@H](CSSC[C@H](NC3=O)C(=O)N[C@@H](CN)C(=O)N[C@@H](Cc3cnc[nH]3)C(=O)N3CCC[C@H]3C(=O)N[C@@H](C)C(=O)N2)NC1=O (HELM PEPTIDE1{A.A.G.G.G.C.C.[NC[C@H](N[*:1])C(=O)[*:2]].H.P.A.C.S.V.N.N.P.D.I.C.G.G}$PEPTIDE1,PEPTIDE1,6:R3-12:R3|PEPTIDE1,PEPTIDE1,7:R3-20:R3|PEPTIDE1,PEPTIDE1,1:R1-22:R2$$$V2.0)	–	–	43.3	> 85
CC[C@H](C)[C@@H]1NC(=O)[C@H](CC(=O)O)NC(=O)[C@@H]2CCCN2C(=O)[C@H](CC(N)=O)NC(=O)[C@H](CC(N)=O)NC(=O)[C@H](C(C)C)NC(=O)[C@H](CO)NC(=O)[C@@H]2CSSC[C@H](NC(=O)CN)C(=O)N[C@@H](CNC(=O)C[C@@H](C(N)=O)NC1=O)C(=O)N[C@@H](CN)C(=O)N[C@@H](Cc1cnc[nH]1)C(=O)N1CCC[C@H]1C(=O)N[C@@H](C)C(=O)N2 (HELM PEPTIDE1{G.C.[O=C([C@H](CN[*:3])N[*:1])[*:2]].[NC[C@H](N[*:1])C(=O)[*:2]].H.P.A.C.S.V.N.N.P.D.I.D.[am]}$PEPTIDE1,PEPTIDE1,2:R3-8:R3|PEPTIDE1,PEPTIDE1,3:R3-16:R3$$$V2.0)	–	< 5	57.3	–
CC[C@H](C)[C@@H]1NC(=O)[C@H](CC(=O)O)NC(=O)[C@@H]2CCCN2C(=O)[C@H](CC(N)=O)NC(=O)[C@H](CC(N)=O)NC(=O)[C@H](C(C)C)NC(=O)[C@H](CO)NC(=O)[C@@H]2CSSC[C@@H]3NC(=O)CNC(=O)[C@@H](N)CNC(=O)CC[C@@H](C(N)=O)NC(=O)[C@H](CSSC[C@H](NC3=O)C(=O)N[C@@H](CN)C(=O)N[C@@H](Cc3cnc[nH]3)C(=O)N3CCC[C@H]3C(=O)N[C@@H](C)C(=O)N2)NC1=O (HELM PEPTIDE1{[N[C@@H](CN[*:3])C(=O)[*:2]].G.C.C.[NC[C@H](N[*:1])C(=O)[*:2]].H.P.A.C.S.V.N.N.P.D.I.C.E.[am]}$PEPTIDE1,PEPTIDE1,1:R3-18:R3|PEPTIDE1,PEPTIDE1,3:R3-9:R3|PEPTIDE1,PEPTIDE1,4:R3-17:R3$$$V2.0)	–	< 5	57.3	–

— ChEMBL document CHEMBL6074659, “Development of an Intravenously Stable Disulfide-Rich Peptide for the Treatment of Chemotherapy-Induced Neuropathic Pain” (J Med Chem, 2024)
